Test results: publication PMC11022729 (Advanced Science, 2024)

Experiments:
histamine H1 receptor [1] = molecular target: T1, histamine H1 receptor (Homo sapiens, UniProt P35367); experiment: SafetyScreen44 panel; format: binding; set-up: purchased Eurofins Cerep P270; conditions: 10 µM
Description: (§1) Measurements were performed in duplicate.
(§2) channel, which were obtainedfrom ratspecimens).
(§3) in brackets) specific for each target.

mice [2] = experiment: Vertical pole test; format: in vivo, mouse; conditions: 15 min after dosing
Description: As a prerequisite for interpreting itch behavior experiments, we first tested motor function after systemic dosing.
Mice were placed on a rotarod treadmill (Ugo Basile, Italy) at increasing speed (4–40 rpm over 300 s) and trained for 4–5 consecutive days. Only mice that reached 300 s without falling off during the training sessions were included in the experiment. In the vertical pole test, the mice were placed head‐upward on top of a vertical pole with a rough surface (diameter, 1 cm; height, 40 cm), and the time until the animals reached the ground was recorded (cut‐off time 20 s). Only mice that reached the ground within 10 s in the baseline measurements were included in the experiment. […] The means of three trials at each time point were calculated for further analyses.

histamine H1 receptor [3] = molecular target: T1, histamine H1 receptor; experiment: [3H]-pyrilamine competition binding assay; set-up: expressed in transfected cells; host or cells: CHO
Description: For membrane preparations of CHO cells stably expressing the human histamine H1 receptor (H1R), cells were washed and harvested with PBS buffer, homogenized by sonication (3 × 15 s) in ice‐cold HEPES‐H1R binding buffer (20 mM HEPES, 10 mM MgCl2, and 100 mM NaCl), followed by a centrifugation step (20 000 × g, 30 min, 4 °C). The resulting cell pellet was resuspended in binding buffer and homogenized using a hand potter. Membrane extracts were stored at −80 °C. Prior to use, the membranes were handled as described for D2R/D3R. […] Assays were performed at least in duplicates with appropriate concentrations between 0.1 nM and 100 µM of the test compound. […] The subsequent procedure was performed as described for D2R/D3R.

[4] = tested on: voltage-dependent Na+ channels in IB4-binding sensory neurons; experiment: Tetrodotoxin-resistant Na+ currents in DRG neurons (patch-clamp); format: cell-based, mouse; conditions: 50 µM
[5] = Metabolic stability assay in rat liver microsomes; format: in vitro ADME; conditions: for metabolic stability: 10 µM, 15, 30 and 60 min
Description: We next assessed the metabolic stability of these compounds (10 µM) in rat liver microsomes (Figure 2A). […] Therefore, we assumed that the occupation of metabolically labile sites at the aromatic core and the reduction in electron density at the oxidizable nitrogen atom of the piperazine ring might increase metabolic stability. Indeed, both the introduction of fluorine at R^2 and the introduction of an electron‐withdrawing carboxylic acid linker at R^3 improved metabolic stability. The substitution of chlorine with a trifluoromethyl group at R^1 was also beneficial. In contrast, homopiperazine and hydroxy linkers were metabolically labile.
The solubilized test compound (5 µL, final concentration 10 µM) was preincubated at 37 °C in 432 µL phosphate buffer (0.1 M, pH 7.4) together with 50 µL NADPH regenerating system (30 mM glucose‐6‐phosphate, 4 U mL^−1 glucose 6‐phosphate dehydrogenase, 10 mM NADP, and 30 mM MgCl2). After 5 min, the reaction started upon the addition of 13 µL of microsome mix from the liver of Sprague‐Dawley rats (Invitrogen; 20 mg protein per mL in 0.1 M phosphate buffer) in a shaking water bath at 37 °C. The reaction was stopped by adding 500 µL ice‐cold methanol at 0, 15, 30, and 60 min. The samples were centrifuged at 5000 × g for 5 min at 4 °C and the test compound was quantified from the supernatants by HPLC; the composition of the mobile phase was adapted to the test compound in a range of MeOH 40−90% and water (0.1% formic acid) 10−60%. Flow rate: 1 mL min^−1; stationary phase: Purospher STAR, RP18, 5 µm, 125 × 4; precolumn: Purospher STAR, RP18, 5 µm, 4 × 4; detection wavelength: 254 and 280 nm; injection volume: 50 µL. Control samples were used to evaluate the stability of the test compounds in the reaction mixture. The first control was without NADPH, which is needed for the enzymatic activity of the microsomes, the second control was with inactivated microsomes (incubated for 20 min at 90 °C), and the third control was without the test compound (to determine the baseline). The amounts of test compounds were quantified using an external calibration curve.

mice [6] = experiment: MC903 model of persistent itch; format: in vivo, mouse; conditions: i.p. at day 8, vs vehicle
Description: We next assessed the efficacy of compound 6 in the treatment of chronic itching. […] These findings are important because they indicate that Slack activators can reduce existing itching.
Chronic itching was induced using the MC903 model.^[ [48] ^] The fur on the dorsolateral aspect of the neck was shaved under brief isoflurane anesthesia. Five days later, 20 µL MC903 (0.2 mM; Calcipotriol, Tocris) solved in absolute ethanol was applied to the skin at the back of the neck under brief anesthesia for 7 consecutive days. On day 8, the mice were habituated for 30 min in a plexiglass cylinder (30 cm in diameter). Compound 6 hydrochloride or vehicle was administered i.p., and 15 min later, spontaneous scratching was recorded over 30 min by videotaping.

[7] = molecular target: human ether-à-go-go (hERG) potassium channel (Homo sapiens, UniProt Q12809); experiment: SafetyScreen44 panel; conditions: 10 µM
human ether-à-go-go (hERG) potassium channel, sequence (Q12809 whole entry): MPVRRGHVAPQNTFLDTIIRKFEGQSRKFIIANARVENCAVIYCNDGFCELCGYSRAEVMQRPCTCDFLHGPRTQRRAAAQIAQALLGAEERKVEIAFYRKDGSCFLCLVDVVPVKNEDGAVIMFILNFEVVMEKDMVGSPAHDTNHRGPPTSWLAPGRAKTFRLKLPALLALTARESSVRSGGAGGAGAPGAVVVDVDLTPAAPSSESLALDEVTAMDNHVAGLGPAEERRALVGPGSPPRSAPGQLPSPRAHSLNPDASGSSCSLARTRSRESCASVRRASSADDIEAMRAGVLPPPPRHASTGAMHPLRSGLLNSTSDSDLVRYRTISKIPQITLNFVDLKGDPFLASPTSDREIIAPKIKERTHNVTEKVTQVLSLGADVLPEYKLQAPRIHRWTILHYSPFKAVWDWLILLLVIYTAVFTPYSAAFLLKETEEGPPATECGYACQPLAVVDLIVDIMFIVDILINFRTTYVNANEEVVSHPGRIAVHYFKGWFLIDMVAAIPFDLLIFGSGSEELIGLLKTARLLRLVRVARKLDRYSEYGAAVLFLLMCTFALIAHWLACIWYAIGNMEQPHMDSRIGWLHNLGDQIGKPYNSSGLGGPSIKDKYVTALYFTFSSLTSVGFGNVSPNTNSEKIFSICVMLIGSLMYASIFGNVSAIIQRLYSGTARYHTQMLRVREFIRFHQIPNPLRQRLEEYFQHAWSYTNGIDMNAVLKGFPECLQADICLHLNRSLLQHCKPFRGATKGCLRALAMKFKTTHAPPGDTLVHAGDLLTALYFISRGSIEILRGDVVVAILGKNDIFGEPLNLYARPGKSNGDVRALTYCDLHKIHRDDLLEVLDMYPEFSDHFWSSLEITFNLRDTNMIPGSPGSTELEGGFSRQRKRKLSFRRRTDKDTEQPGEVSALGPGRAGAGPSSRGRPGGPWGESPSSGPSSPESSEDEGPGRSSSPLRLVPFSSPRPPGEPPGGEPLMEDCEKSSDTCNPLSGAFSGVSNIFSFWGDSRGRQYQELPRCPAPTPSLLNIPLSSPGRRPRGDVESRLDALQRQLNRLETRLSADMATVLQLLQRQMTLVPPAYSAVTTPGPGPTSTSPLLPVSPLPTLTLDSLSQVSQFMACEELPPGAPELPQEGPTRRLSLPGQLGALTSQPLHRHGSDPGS
Description: as §1, §2, §3

histamine H2 receptor = histamine H2 receptor (Homo sapiens, UniProt P25021); experiment: SafetyScreen44 panel; conditions: read-out: binding inhibition
histamine H2 receptor, sequence (P25021 whole entry): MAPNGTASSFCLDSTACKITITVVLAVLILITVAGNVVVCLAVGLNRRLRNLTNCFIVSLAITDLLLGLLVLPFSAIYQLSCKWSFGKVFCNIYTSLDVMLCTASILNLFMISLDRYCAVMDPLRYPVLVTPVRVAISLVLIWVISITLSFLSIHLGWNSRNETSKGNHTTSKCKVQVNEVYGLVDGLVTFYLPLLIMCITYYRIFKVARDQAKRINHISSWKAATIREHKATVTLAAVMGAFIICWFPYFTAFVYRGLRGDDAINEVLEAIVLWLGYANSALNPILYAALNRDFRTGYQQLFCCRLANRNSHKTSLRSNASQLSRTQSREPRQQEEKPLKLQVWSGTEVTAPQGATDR
Description: as §1, §2, §3

muscarinic M2 receptor = muscarinic M2 receptor (Homo sapiens, UniProt P08172); experiment: SafetyScreen44 panel; conditions: read-out: binding inhibition
muscarinic M2 receptor, sequence (P08172 whole entry): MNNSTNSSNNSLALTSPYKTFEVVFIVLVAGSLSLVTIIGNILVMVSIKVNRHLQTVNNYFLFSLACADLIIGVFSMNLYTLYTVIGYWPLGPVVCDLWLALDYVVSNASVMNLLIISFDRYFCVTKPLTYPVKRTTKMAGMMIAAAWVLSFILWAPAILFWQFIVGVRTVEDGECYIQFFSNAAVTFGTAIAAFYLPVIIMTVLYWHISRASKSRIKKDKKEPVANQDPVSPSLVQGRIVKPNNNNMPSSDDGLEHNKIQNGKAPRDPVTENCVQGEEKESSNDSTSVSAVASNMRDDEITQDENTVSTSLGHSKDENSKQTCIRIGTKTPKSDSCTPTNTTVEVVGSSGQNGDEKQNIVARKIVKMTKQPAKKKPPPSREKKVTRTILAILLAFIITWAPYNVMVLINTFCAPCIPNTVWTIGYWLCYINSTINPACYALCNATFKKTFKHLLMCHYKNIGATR
Description: as §1, §2, §3

[8] = molecular target: T2, serotonin 5-HT1A receptor (Homo sapiens, UniProt P08908); experiment: SafetyScreen44 panel; conditions: read-out: binding inhibition
T2 construct: purchased Eurofins Cerep P270
T2 sequence (P08908 whole entry): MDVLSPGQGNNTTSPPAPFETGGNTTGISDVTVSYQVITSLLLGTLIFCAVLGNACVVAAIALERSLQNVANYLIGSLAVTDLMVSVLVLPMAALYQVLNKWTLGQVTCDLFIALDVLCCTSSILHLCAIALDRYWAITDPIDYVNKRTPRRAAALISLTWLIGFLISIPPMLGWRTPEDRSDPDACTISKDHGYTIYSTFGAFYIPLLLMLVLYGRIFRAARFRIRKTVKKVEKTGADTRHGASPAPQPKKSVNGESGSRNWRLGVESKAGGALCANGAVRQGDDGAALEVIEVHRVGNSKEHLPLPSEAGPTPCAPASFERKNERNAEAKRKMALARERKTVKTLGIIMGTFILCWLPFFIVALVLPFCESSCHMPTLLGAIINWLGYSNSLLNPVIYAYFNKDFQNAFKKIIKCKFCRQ
Description: as §1, §2, §3

[9] = molecular target: T3, serotonin 5-HT1B receptor (Homo sapiens, UniProt P28222); experiment: SafetyScreen44 panel; conditions: read-out: binding inhibition
T3 construct: purchased Eurofins Cerep P270
T3 sequence (P28222 whole entry): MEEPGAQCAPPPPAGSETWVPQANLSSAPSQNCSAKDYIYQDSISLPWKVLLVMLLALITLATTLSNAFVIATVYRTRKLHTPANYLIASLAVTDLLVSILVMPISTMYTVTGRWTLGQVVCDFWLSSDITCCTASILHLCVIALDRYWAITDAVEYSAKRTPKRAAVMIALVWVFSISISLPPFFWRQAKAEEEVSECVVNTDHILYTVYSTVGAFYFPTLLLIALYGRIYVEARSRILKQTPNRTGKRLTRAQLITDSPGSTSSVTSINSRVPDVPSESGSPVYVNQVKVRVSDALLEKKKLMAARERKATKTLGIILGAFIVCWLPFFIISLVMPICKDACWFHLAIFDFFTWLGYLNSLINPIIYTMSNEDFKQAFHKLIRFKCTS
Description: as §1, §2, §3

serotonin 5-HT3 receptor = serotonin 5-HT3 receptor (Homo sapiens, UniProt P46098); experiment: SafetyScreen44 panel; conditions: read-out: binding inhibition
serotonin 5-HT3 receptor, sequence (P46098 24-478): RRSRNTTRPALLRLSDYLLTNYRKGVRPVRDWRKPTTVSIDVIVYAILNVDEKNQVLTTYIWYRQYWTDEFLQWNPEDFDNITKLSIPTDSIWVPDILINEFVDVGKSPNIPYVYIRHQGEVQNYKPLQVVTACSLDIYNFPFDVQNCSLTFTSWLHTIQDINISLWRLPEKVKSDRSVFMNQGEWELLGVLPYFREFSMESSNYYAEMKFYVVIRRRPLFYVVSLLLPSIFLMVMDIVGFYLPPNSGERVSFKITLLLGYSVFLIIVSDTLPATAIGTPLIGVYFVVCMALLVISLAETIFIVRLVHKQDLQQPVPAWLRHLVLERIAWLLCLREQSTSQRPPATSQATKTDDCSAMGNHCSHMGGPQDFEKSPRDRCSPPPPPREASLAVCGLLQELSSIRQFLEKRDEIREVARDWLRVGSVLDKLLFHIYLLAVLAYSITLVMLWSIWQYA
Description: as §1, §2, §3

T1 sequence (P35367 whole entry): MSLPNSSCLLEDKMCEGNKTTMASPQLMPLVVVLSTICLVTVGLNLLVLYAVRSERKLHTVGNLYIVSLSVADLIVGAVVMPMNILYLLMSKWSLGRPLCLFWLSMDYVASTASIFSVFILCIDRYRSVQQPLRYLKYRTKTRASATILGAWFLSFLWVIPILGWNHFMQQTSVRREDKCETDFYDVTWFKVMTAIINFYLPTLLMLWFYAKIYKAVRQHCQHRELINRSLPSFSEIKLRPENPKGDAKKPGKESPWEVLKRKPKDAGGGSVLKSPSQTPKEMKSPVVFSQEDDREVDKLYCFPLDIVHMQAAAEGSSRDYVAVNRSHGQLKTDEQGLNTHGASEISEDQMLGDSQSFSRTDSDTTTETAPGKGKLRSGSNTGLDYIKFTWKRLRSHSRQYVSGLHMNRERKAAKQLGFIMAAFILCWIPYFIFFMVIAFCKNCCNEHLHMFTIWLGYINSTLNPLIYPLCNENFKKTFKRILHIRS

Row | Compound | binding inhibition (histamine H1 receptor [1]) | motor function, vertical pole test (mice [2]; 3–30 mg i.p.) | affinity for histamine H1 receptors (histamine H1 receptor [3]) | Ki (histamine H1 receptor [3]; mean [CI 95%]) [µM] | tetrodotoxin-resistant Na+ currents [4] | metabolic stability [5] | head shaking (mice [6]) | scratching (mice [6]) | motor function, vertical pole test (mice [2]; dose of ≥ 0.39 mg kg−1 i.p.) | binding [7] | inhibition at 10 µM (histamine H2 receptor) [%] | inhibition at 10 µM (muscarinic M2 receptor) [%] | inhibition at 10 µM [8] [%] | inhibition at 10 µM [9] [%] | inhibition at 10 µM (serotonin 5-HT3 receptor) [%] | drug remaining unmodified ([5]; 10 µM, after 15 min) [%]
1 | O=C(O)COCCN1CCN(C2=Nc3ccccc3Oc3ccc(Cl)cc32)CC1 [Compound 6] | substantial binding | did not impair motor function | low affinity | 0.575 | did not affect | highest metabolic stabilities | significantly ameliorated | significantly ameliorated | – | – | – | – | – | – | – | –
2 | CN1CCN(C2=Nc3ccccc3Oc3ccc(Cl)cc32)CC1 [Loxapine, reference compound] | – | – | – | – | – | metabolized rapidly | – | – | markedly reduced the ability of the mice to perform | did not measurably bind | > 50 | > 50 | > 50 | > 50 | > 50 | 6
